The conditions of data set [1]: woman given daily FSH injections at a given dosage; cited from earlier work.
The test system of data set [2] is follicular growth to ovulation. The following applies: Schoemaker study; cited from earlier work.
The subject of data set [3] is patient with diminished ovarian reserve. The data set can be described thus: Case of a low-responder patient: FSH needed to ovulate, with and without estradiol patch and low dose hCG. Format: in vivo, human. On the procedure:
To ovulate a single follicle, they required a follicle stimulating hormone level of 18 IU/L, with a typical threshold value of FSH required for a regularly cycling young and healthy woman in the range of 5 IU/L or less. This patient was also characterized by their physician as a low responder to FSH, which refers to a patient who requires high follicle stimulating hormone doses to ovulate even a single follicle. […] In the first two menstrual cycles, the patient was treated using the method as described supra, with a high dose follicle stimulating hormone (FSH) at a total dosage of FSH at about 5,000 IU across the cycle with very high threshold dosage and threshold peak follicle stimulating hormone levels like that of an AMA person with high FSH, in the first cycle and second cycle to induce follicle growth to the ovulatory stage. In the third consecutive treatment cycle, the above-described regimen was supplemented with an estradiol patch delivering 17-beta estradiol for several days until the commencement of stimulation with FSH medication. The patch was then continued daily during the period of stimulated until the evening before expected hCG injection, when it was removed. This was designed to coincide to approximate the timing of the estradiol surge. […]

Consider follicle stimulating hormone, for which, in data set [1], the “time for steady-state levels of FSH to be established” value is recorded as 4 days. Also, the “threshold level of serum FSH for follicular growth to ovulation” value in data set [2] was 7.8 IU. In addition, the “follicle stimulating hormone level required to ovulate a single follicle” value in data set [3] (COHS cycle, severe GnRHa suppression) was found to be 18 IU/L. The “total dosage of FSH across the cycle to induce follicle growth to the ovulatory stage” value in data set [3] (first and second cycles, without estradiol and hCG supplementation) was “about 5,000 IU”.
